Results as given in US9695163B2, “Thiazole orexin receptor antagonists” (MERCK SHARP & DOHME CORP., priority 2013, dated 2017).

Legend:
[1] = molecular target: human orexin-1 receptor (hOX1R) (Homo sapiens (Human), UniProt O43613); assay: FLIPR Ca2+ Flux Assay, CHO cells expressing human orexin-1 receptor; assay type: cell-based; conditions: agonist Ala-6,12 human orexin-A 70 pM
From the text: The utility of the compounds in accordance with the present invention as orexin receptor OX1R and/or OX2R antagonists may be readily determined without undue experimentation by methodology well known in the art, including the “FLIPR Ca^2+ Flux Assay” (Okumura et al., Biochem. Biophys. Res. Comm. 2001, 280:976-981). Briefly, for intracellular calcium measurements, Chinese hamster ovary (CHO) cells expressing the orexin-1 receptor (e.g., rat or human) or the orexin-2 receptor (e.g., rat or human), are grown in Iscove's modified DMEM containing 2 mM L-glutamine, […], 1% hypoxanthine-thymidine supplement, 100 U/ml penicillin, 100 μg/ml streptomycin and 10% heat-inactivated fetal calf serum (FCS). The cells are seeded at approximately 20,000 cells per well into 384-well clear bottom sterile plates coated with poly-D-lysine. The seeded plates are incubated overnight at 37° C. and 5% CO2. Human ala-6,12 orexin-A can be used as the agonist and prepared as a 1 mM stock solution in 1% bovine serum albumin (BSA) and diluted in assay buffer (HBSS containing 20 mM HEPES, 0.1% BSA and 2.5 mM probenecid, pH7.4) for use in the assay at a final concentration of 70 pM. Test compounds are prepared as 10 mM stock solution in DMSO, then diluted in 384-well plates, first in DMSO, then in assay buffer. On the day of the assay, cells are washed 3 times with 100 μl assay buffer and then incubated for 60 minutes (37° C., 5% CO2) in 60 μl assay buffer containing 1 μM Fluo-4 AM ester, 0.02% pluronic acid, and 1% BSA. The dye loading solution is then aspirated and cells are washed 3 times with 100 μl assay buffer. 30 μl of that same buffer is left in each well. Within the Fluorescent Imaging Plate Reader (FLIPR, Molecular Devices), test compounds are added to the plate in a volume of 25 μl, incubated for 5 minutes, and then 25 μl of agonist is added. Fluorescence is measured for each well at 1 second intervals for 5 minutes, and the height of each fluorescence peak is compared to the height of the fluorescence peak induced by 70 pM of agonist ala-6,12 orexin-A with buffer in place of test compound. IC50 value for the test compound is determined to be the concentration of compound needed to inhibit 50% of the agonist response. Alternatively, compound potency can be assessed using a radioligand binding assay (described in Bergman et. al., Bioorg. Med. Chem. Lett. 2008, 18:1425-1430) in which the inhibition constant (Ki) is determined in membranes prepared from CHO cells expressing either the OX1 or OX2 receptor. The intrinsic orexin receptor antagonist activity of a compound of the present invention may be determined by these assays.

[2] = molecular target: human orexin-2 receptor (hOX2R) (Homo sapiens (Human), UniProt O43614); assay: FLIPR Ca2+ Flux Assay, CHO cells expressing human orexin-2 receptor; assay type: cell-based; conditions: agonist Ala-6,12 human orexin-A 70 pM
Chain of human orexin-2 receptor (hOX2R) (O43614 whole entry): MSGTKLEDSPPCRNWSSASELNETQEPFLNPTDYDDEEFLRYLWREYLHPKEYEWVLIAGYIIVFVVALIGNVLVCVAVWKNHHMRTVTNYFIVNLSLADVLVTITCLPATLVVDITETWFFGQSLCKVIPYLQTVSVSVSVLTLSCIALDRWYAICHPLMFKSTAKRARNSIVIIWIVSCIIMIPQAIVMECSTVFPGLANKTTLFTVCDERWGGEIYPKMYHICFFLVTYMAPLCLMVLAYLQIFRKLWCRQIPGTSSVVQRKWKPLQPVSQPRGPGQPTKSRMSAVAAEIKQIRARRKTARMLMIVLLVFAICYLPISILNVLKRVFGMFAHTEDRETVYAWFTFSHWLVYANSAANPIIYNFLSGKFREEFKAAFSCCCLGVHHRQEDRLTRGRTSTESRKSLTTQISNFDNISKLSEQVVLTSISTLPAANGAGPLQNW
Procedure: Briefly, for intracellular calcium measurements, Chinese hamster ovary (CHO) cells expressing the orexin-1 receptor (e.g., rat or human) or the orexin-2 receptor (e.g., rat or human), are grown in Iscove's modified DMEM containing 2 mM L-glutamine, […], 1% hypoxanthine-thymidine supplement, 100 U/ml penicillin, 100 μg/ml streptomycin and 10% heat-inactivated fetal calf serum (FCS). The cells are seeded at approximately 20,000 cells per well into 384-well clear bottom sterile plates coated with poly-D-lysine. The seeded plates are incubated overnight at 37° C. and 5% CO2. Human ala-6,12 orexin-A can be used as the agonist and prepared as a 1 mM stock solution in 1% bovine serum albumin (BSA) and diluted in assay buffer (HBSS containing 20 mM HEPES, 0.1% BSA and 2.5 mM probenecid, pH7.4) for use in the assay at a final concentration of 70 pM. Test compounds are prepared as 10 mM stock solution in DMSO, then diluted in 384-well plates, first in DMSO, then in assay buffer. On the day of the assay, cells are washed 3 times with 100 μl assay buffer and then incubated for 60 minutes (37° C., 5% CO2) in 60 μl assay buffer containing 1 μM Fluo-4 AM ester, 0.02% pluronic acid, and 1% BSA. The dye loading solution is then aspirated and cells are washed 3 times with 100 μl assay buffer. 30 μl of that same buffer is left in each well. Within the Fluorescent Imaging Plate Reader (FLIPR, Molecular Devices), test compounds are added to the plate in a volume of 25 μl, incubated for 5 minutes, and then 25 μl of agonist is added. Fluorescence is measured for each well at 1 second intervals for 5 minutes, and the height of each fluorescence peak is compared to the height of the fluorescence peak induced by 70 pM of agonist ala-6,12 orexin-A with buffer in place of test compound. IC50 value for the test compound is determined to be the concentration of compound needed to inhibit 50% of the agonist response. Alternatively, compound potency can be assessed using a radioligand binding assay (described in Bergman et. al., Bioorg. Med. Chem. Lett. 2008, 18:1425-1430) in which the inhibition constant (Ki) is determined in membranes prepared from CHO cells expressing either the OX1 or OX2 receptor. The intrinsic orexin receptor antagonist activity of a compound of the present invention may be determined by these assays. […]

Chain of human orexin-1 receptor (hOX1R) (O43613 whole entry): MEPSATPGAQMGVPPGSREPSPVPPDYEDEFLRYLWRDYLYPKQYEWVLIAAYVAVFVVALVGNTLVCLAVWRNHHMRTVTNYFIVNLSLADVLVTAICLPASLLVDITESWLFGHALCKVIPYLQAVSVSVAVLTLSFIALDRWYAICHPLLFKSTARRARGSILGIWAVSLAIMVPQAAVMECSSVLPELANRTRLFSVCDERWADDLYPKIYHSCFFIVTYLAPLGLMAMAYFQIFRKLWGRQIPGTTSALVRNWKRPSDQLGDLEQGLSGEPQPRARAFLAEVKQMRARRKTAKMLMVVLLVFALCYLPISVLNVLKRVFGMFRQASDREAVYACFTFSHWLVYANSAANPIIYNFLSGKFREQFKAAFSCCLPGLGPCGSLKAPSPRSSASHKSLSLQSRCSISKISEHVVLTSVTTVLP

Row | Compound | IC50 [1] | IC50 [2]
1 | C[C@@H]1CC[C@@H](c2csc(C(C)(C)O)n2)CN1C(=O)c1ccccc1CS(C)(=O)=O [Example 34, ((2R,5R)-5-(2-(2-hydroxypropan-2-yl)thiazol-4-yl)-2-methylpiperidin-1-yl)(2-((methylsulfonyl)methyl)phenyl)methanone] | > 10000 nM | 40 nM
2 | C[C@@H]1CC[C@@H](c2csc(C(C)(C)O)n2)CN1C(=O)c1cscc1-n1nccn1 [Example 35, (4-(2H-1,2,3-triazol-2-yl)thiophen-3-yl)((2R,5R)-5-(2-(2-hydroxypropan-2-yl)thiazol-4-yl)-2-methylpiperidin-1-yl)methanone] | > 10000 nM | 14 nM
3 | C[C@@H]1CC[C@@H](c2csc(C(C)(C)O)n2)CN1C(=O)c1ccccc1-n1nccn1 [Example 36, (2-(2H-1,2,3-triazol-2-yl)phenyl)((2R,5R)-5-(2-(2-hydroxypropan-2-yl)thiazol-4-yl)-2-methylpiperidin-1-yl)methanone] | 2300 nM | 20 nM
4 | C[C@@H]1CC[C@@H](c2csc(C(C)(C)O)n2)CN1C(=O)c1ccsc1-n1nccn1 [Example 37, (2-(2H-1,2,3-Triazol-2-yl)thiophen-3-yl)((2R,5R)-5-(2-(2-hydroxypropan-2-yl)thiazol-4-yl)-2-methylpiperidin-1-yl)methanone] | 7200 nM | 16 nM
5 | C[C@@H]1CC[C@@H](c2csc(C(C)(C)O)n2)CN1C(=O)c1ccc(F)cc1-n1nccn1 [Example 38, (4-Fluoro-2-(2H-1,2,3-triazol-2-yl)phenyl)((2R,5R)-5-(2-(2-hydroxypropan-2-yl)thiazol-4-yl)-2-methylpiperidin-1-yl)methanone] | 2050 nM | 14 nM
6 | ((2R,5R)-5-(4-(2-Hydroxypropan-2-yl)-5- methylthiazol-2-yl)-2-methylpiperidin-1- yl)(2-(pyrimidin-2-yl)thiophen-3- yl)methanone [Example 27] | 700 nM | 87 nM
